Reference: patent publication US11759462B2, “Spirocyclic compounds as tryptophan hydroxylase inhibitors” (priority 2013, dated 2023)
Read-outs that look alike come from different tables or passages of the source. Values belong to the compound of their own block, whether it stands above or below them.

Target: T1, Recombinant human TPH1 (MBP tagged) (Homo sapiens, UniProt P17752)
T1 construct: cloning full length human TPH1 cDNA in to a bacterial pMAL-c5E expression vector; made in house; host or cells: E. coli BL21 (DE3)
T1 sequence (P17752 1-444): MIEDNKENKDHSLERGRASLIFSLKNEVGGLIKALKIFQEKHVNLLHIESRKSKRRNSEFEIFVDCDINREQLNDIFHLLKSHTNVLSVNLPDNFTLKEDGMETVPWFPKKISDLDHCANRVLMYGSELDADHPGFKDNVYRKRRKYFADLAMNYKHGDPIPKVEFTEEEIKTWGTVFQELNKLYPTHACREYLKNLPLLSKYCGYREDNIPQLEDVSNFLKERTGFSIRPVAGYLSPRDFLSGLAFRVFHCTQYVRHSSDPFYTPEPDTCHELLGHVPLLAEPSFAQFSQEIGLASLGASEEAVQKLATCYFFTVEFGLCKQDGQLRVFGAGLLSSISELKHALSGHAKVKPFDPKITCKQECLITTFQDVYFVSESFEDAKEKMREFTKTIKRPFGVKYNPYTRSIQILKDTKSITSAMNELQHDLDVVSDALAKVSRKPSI
Experiment: TPH1 in vitro inhibition assay (kinetic fluorescence)
Format: biochemical
How it was run: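 Final mix: 15 nM MBP-TPH1, 30 μM Trp, 36 μM 6-methyltetrahydropterin, 25 μM ferrous ammonium sulfate, 50 mM MES pH 7.1, 1% DMSO, room temperature.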

[1] = read-out: TPH1 Range (TPH1 inhibition IC50)
[2] = TPH1 Range (TPH1 inhibition IC50)

Structure (SMILES): CC(C)Oc1ccc(-c2ccc([C@@H](Oc3cc(N4CCC5(CC4)CN[C@H](C(=O)O)C5)nc(N)n3)C(F)(F)F)c(-c3ccccc3)c2)cc1 [Example 54b, (S)-8-(2-amino-6-((R)-2,2,2-trifluoro-1-(4-isopropoxy-[1,1′:3′,1″-terphenyl]-4′-yl)ethoxy)pyrimidin-4-yl)-2,8-diazaspiro[4.5]decane-3-carboxylic acid]
IC50 [1]: 50 to 300 nM

Structure (SMILES): CCCOc1ccc(-c2ccc([C@@H](Oc3cc(N4CCC5(CC4)CN[C@H](C(=O)O)C5)nc(N)n3)C(F)(F)F)c(-c3ccccc3)c2)cc1 [Example 54c, (S)-8-(2-amino-6-((R)-2,2,2-trifluoro-1-(4-propoxy-[1,1′:3′,1″-terphenyl]-4′-yl)ethoxy)pyrimidin-4-yl)-2,8-diazaspiro[4.5]decane-3-carboxylic acid]
IC50 [1]: < 50 nM

Structure (SMILES): CS(=O)(=O)c1ccc([C@@H](Oc2cc(N3CCC4(CC3)CN[C@H](C(=O)O)C4)nc(N)n2)C(F)(F)F)c(-c2ccccc2)c1 [Example 54d, (S)-8-(2-amino-6-((R)-2,2,2-trifluoro-1-(5-(methylsulfonyl)-[1,1′-biphenyl]-2-yl)ethoxy)pyrimidin-4-yl)-2,8-diazaspiro[4.5]decane-3-carboxylic acid]
IC50 [1]: 50 to 300 nM

Structure (SMILES): CCCOc1ccc(-c2ccc([C@@H](Oc3cc(N4CCC5(CC4)CN[C@H](C(=O)O)C5)nc(N)n3)C(F)(F)F)c(-c3ccccc3)c2)cc1F [Example 54e, (S)-8-(2-amino-6-((R)-2,2,2-trifluoro-1-(3-fluoro-4-propoxy-[1,1′:3′,1″-terphenyl]-4′-yl)ethoxy)pyrimidin-4-yl)-2,8-diazaspiro[4.5]decane-3-carboxylic acid]
IC50 [1]: 50 to 300 nM

Structure (SMILES): Cc1ccc(-c2ccc([C@@H](Oc3cc(N4CCC5(CC4)CN[C@H](C(=O)O)C5)nc(N)n3)C(F)(F)F)c(-c3ccccc3)c2)cc1C [Example 54f, (S)-8-(2-amino-6-((R)-1-(3,4-dimethyl-[1,1′:3′,1″-terphenyl]-4′-yl)-2,2,2-trifluoroethoxy)pyrimidin-4-yl)-2,8-diazaspiro[4.5]decane-3-carboxylic acid]
IC50 [1]: < 50 nM

Structure (SMILES): Nc1nc(O[C@H](c2ccc(-c3ccccc3)cc2-c2ccccc2)C(F)(F)F)cc(N2CCC3(CC2)CN[C@H](C(=O)O)C3)n1 [Example 54g, (S)-8-(6-((R)-1-([1,1′:3′,1″-terphenyl]-4′-yl)-2,2,2-trifluoroethoxy)-2-aminopyrimidin-4-yl)-2,8-diazaspiro[4.5]decane-3-carboxylic acid]
IC50 [1]: 50 to 300 nM

Structure (SMILES): Nc1nc(O[C@H](c2ccc(Cl)cc2-c2ccccc2)C(F)(F)F)cc(N2CCC3(CC2)CN[C@@H](C(=O)O)C3)n1 [Example 54h, (R)-8-(2-amino-6-((R)-1-(5-chloro-[1,1′-biphenyl]-2-yl)-2,2,2-trifluoroethoxy)pyrimidin-4-yl)-2,8-diazaspiro[4.5]decane-3-carboxylic acid]
IC50 [2]: 3000 to 10000 nM

Structure (SMILES): Nc1nc(O[C@@H](c2ccc(Cl)cc2-c2ccccc2)C(F)(F)F)cc(N2CCC3(CC2)CN[C@@H](C(=O)O)C3)n1 [Example 54i, (R)-8-(2-amino-6-((S)-1-(5-chloro-[1,1′-biphenyl]-2-yl)-2,2,2-trifluoroethoxy)pyrimidin-4-yl)-2,8-diazaspiro[4.5]decane-3-carboxylic acid]
IC50 [2]: 3000 to 10000 nM

Structure (SMILES): Nc1nc(O[C@@H](c2ccc(Cl)cc2-c2ccccc2)C(F)(F)F)cc(N2CCC3(CC2)CN[C@H](C(=O)O)C3)n1 [Example 54j, (S)-8-(2-amino-6-((S)-1-(5-chloro-[1,1′-biphenyl]-2-yl)-2,2,2-trifluoroethoxy)pyrimidin-4-yl)-2,8-diazaspiro[4.5]decane-3-carboxylic acid]
IC50 [2]: 50 to 300 nM

Structure (SMILES): Cc1ccn(-c2cc(-c3ccc(C)c(C)c3)ccc2[C@H](Oc2cc(N3CCC4(CC3)CN[C@H](C(=O)O)C4)nc(N)n2)C(F)(F)F)n1 [Example 54k, (S)-8-(2-amino-6-((S)-1-(3′,4′-dimethyl-3-(3-methyl-1H-pyrazol-1-yl)-[1,1′-biphenyl]-4-yl)-2,2,2-trifluoroethoxy)pyrimidin-4-yl)-2,8-diazaspiro[4.5]decane-3-carboxylic acid]
IC50 [2]: 50 to 300 nM

Structure (SMILES): Cc1ccn(-c2cc(-c3ccc(C)c(C)c3)ccc2[C@H](Oc2cc(N3CCC4(CC3)CN[C@@H](C(=O)O)C4)nc(N)n2)C(F)(F)F)n1 [Example 54l, (R)-8-(2-amino-6-((S)-1-(3′,4′-dimethyl-3-(3-methyl-1H-pyrazol-1-yl)-[1,1′-biphenyl]-4-yl)-2,2,2-trifluoroethoxy)pyrimidin-4-yl)-2,8-diazaspiro[4.5]decane-3-carboxylic acid]
IC50 [2]: 3000 to 10000 nM

Structure (SMILES): Cc1ccn(-c2cc(-c3ccc(C)c(C)c3)ccc2[C@@H](Oc2cc(N3CCC4(CC3)CN[C@@H](C(=O)O)C4)nc(N)n2)C(F)(F)F)n1 [Example 54m, (R)-8-(2-amino-6-((R)-1-(3′,4′-dimethyl-3-(3-methyl-1H-pyrazol-1-yl)-[1,1′-biphenyl]-4-yl)-2,2,2-trifluoroethoxy)pyrimidin-4-yl)-2,8-diazaspiro[4.5]decane-3-carboxylic acid]
IC50 [2]: 300 to 3000 nM

Structure (SMILES): COC(=O)c1ccc(-c2ccc([C@@H](Oc3cc(N4CCC5(CC4)CN[C@H](C(=O)O)C5)nc(N)n3)C(F)(F)F)cc2)cc1OC(C)=O [Example 55ad, (S)-8-(6-((R)-1-(3′-acetoxy-4′-(methoxycarbonyl)-[1,1′-biphenyl]-4-yl)-2,2,2-trifluoroethoxy)-2-aminopyrimidin-4-yl)-2,8-diazaspiro[4.5]decane-3-carboxylic acid]
IC50 [1]: 50 to 300 nM

Continued, values first:

IC50 [1]: 50 to 300 nM
Structure (SMILES): Nc1nc(O[C@H](c2ccc(-c3ccccc3)cc2)C(F)(F)F)cc(N2CCC3(CC2)CN[C@H](C(=O)O)C3)n1 [Example 55a, (S)-8-(6-((R)-1-([1,1′-biphenyl]-4-yl)-2,2,2-trifluoroethoxy)-2-aminopyrimidin-4-yl)-2,8-diazaspiro[4.5]decane-3-carboxylic acid]

IC50 [1]: 50 to 300 nM
Structure (SMILES): COc1cc(C#N)cc(-c2ccc([C@@H](Oc3cc(N4CCC5(CC4)CN[C@H](C(=O)O)C5)nc(N)n3)C(F)(F)F)cc2)c1 [Example 55aa, (S)-8-(2-amino-6-((R)-1-(3′-cyano-5′-methoxy-[1,1′-biphenyl]-4-yl)-2,2,2-trifluoroethoxy)pyrimidin-4-yl)-2,8-diazaspiro[4.5]decane-3-carboxylic acid]

IC50 [1]: 50 to 300 nM
Structure (SMILES): Nc1nc(O[C@H](c2ccc(-c3ccc4[nH]c(=O)oc4c3)cc2)C(F)(F)F)cc(N2CCC3(CC2)CN[C@H](C(=O)O)C3)n1 [Example 55ab, (S)-8-(2-amino-6-((R)-2,2,2-trifluoro-1-(4-(2-oxo-2,3-dihydrobenzo[d]oxazol-6-yl)phenyl)ethoxy)pyrimidin-4-yl)-2,8-diazaspiro[4.5]decane-3-carboxylic acid]

IC50 [1]: 50 to 300 nM
Structure (SMILES): Cc1c[nH]c2ccc(-c3ccc([C@@H](Oc4cc(N5CCC6(CC5)CN[C@H](C(=O)O)C6)nc(N)n4)C(F)(F)F)cc3)cc12 [Example 55ac, (S)-8-(2-amino-6-((R)-2,2,2-trifluoro-1-(4-(3-methyl-1H-indol-5-yl)phenyl)ethoxy)pyrimidin-4-yl)-2,8-diazaspiro[4.5]decane-3-carboxylic acid]

IC50 [1]: 300 to 3000 nM
Structure (SMILES): Nc1nc(O[C@H](c2ccc(-c3ccc4ccc(=O)oc4c3)cc2)C(F)(F)F)cc(N2CCC3(CC2)CN[C@H](C(=O)O)C3)n1 [Example 55ae, (S)-8-(2-amino-6-((R)-2,2,2-trifluoro-1-(4-(2-oxo-2H-chromen-7-yl)phenyl)ethoxy)pyrimidin-4-yl)-2,8-diazaspiro[4.5]decane-3-carboxylic acid]

IC50 [1]: 300 to 3000 nM
Structure (SMILES): Cn1cc(-c2ccc([C@@H](Oc3cc(N4CCC5(CC4)CN[C@H](C(=O)O)C5)nc(N)n3)C(F)(F)F)cc2)ccc1=O [Example 55af, (S)-8-(2-amino-6-((R)-2,2,2-trifluoro-1-(4-(1-methyl-6-oxo-1,6-dihydropyridin-3-yl)phenyl)ethoxy)pyrimidin-4-yl)-2,8-diazaspiro[4.5]decane-3-carboxylic acid]

IC50 [1]: 50 to 300 nM
Structure (SMILES): Nc1nc(O[C@H](c2ccc(-c3ccc(C(=O)O)c(O)c3)cc2)C(F)(F)F)cc(N2CCC3(CC2)CN[C@H](C(=O)O)C3)n1 [Example 55ag, (S)-8-(2-amino-6-((R)-1-(4′-carboxy-3′-hydroxy-[1,1′-biphenyl]-4-yl)-2,2,2-trifluoroethoxy)pyrimidin-4-yl)-2,8-diazaspiro[4.5]decane-3-carboxylic acid]

IC50 [1]: 50 to 300 nM
Structure (SMILES): COc1ccc2cc(-c3ccc([C@@H](Oc4cc(N5CCC6(CC5)CN[C@H](C(=O)O)C6)nc(N)n4)C(F)(F)F)cc3)ccc2n1 [Example 55ah, (S)-8-(2-amino-6-((R)-2,2,2-trifluoro-1-(4-(2-methoxyquinolin-6-yl)phenyl)ethoxy)pyrimidin-4-yl)-2,8-diazaspiro[4.5]decane-3-carboxylic acid]

IC50 [2]: < 50 nM
Structure (SMILES): CSc1ccc2cc(-c3ccc([C@@H](Oc4cc(N5CCC6(CC5)CN[C@H](C(=O)O)C6)nc(N)n4)C(F)(F)F)cc3)ccc2n1 [Example 55ai, (S)-8-(2-amino-6-((R)-2,2,2-trifluoro-1-(4-(2-(methylthio)quinolin-6-yl)phenyl)ethoxy)pyrimidin-4-yl)-2,8-diazaspiro[4.5]decane-3-carboxylic acid]
